Drawing on ChEMBL document CHEMBL2429804, “Examination of the phenolic profile and antioxidant activity of the leaves of the Australian native plant Smilax glyciphylla” (J Nat Prod, 2013), this text covers Activity for five compounds.

The structures appear in SMILES notation.

Test [1] is described as follows: Antioxidant activity assessed as trolox equivalent of DPPH scavenging activity after 4 mins by spectrophotometry. The test is classed as functional.
Test [2] is described as follows: Antioxidant activity assessed as trolox equivalent of ferric ion reducing activity using fe3+-TPTZ after 4 mins by FRAP assay. The test is classed as functional.

For `C[C@@H]1O[C@@H](Oc2cc(O)cc(O)c2C(=O)CCc2ccc(O)c(O)c2)[C@H](O)[C@H](O)[C@H]1O`, the results for the Activity in test [1] and in test [2] were 0.48 equiv and 0.72 equiv, respectively.
The like results for `O=c1c(O[C@@H]2O[C@H](CO)[C@@H](O)[C@H](O)[C@H]2O)c(-c2ccc(O)c(O)c2)oc2cc(O)cc(O)c12` were, in that order, 0.56 equiv and 0.56 equiv.
For `O=c1c(O)c(-c2ccc(O)cc2)oc2cc(O)cc(O)c12`, the results for the Activity in test [1] and in test [2] were 2.4 equiv and 2.36 equiv, respectively.
In the case of `O=C(CCc1ccc(O)c(O)c1)c1c(O)cc(O)cc1O`, the Activity in test [1] came to 0.88 equiv; in test [2], 0.64 equiv.
The corresponding values for `Oc1cc(O)c2c(c1)OC(c1ccc(O)c(O)c1)C(O)C2` (stereo not given) are 0.44 equiv and 0.56 equiv.
